This note sets out measurements from patent US20170150719A1, “FUNGICIDAL PYRAZOLES AND THEIR MIXTURES” (E I DU PONT DE NEMOURS AND COMPANY, priority 2010, published 2017).

The structures appear in SMILES notation. Marks after values point to notes of the source that are not given here.

The test system of experiment [1] is Blumeria graminis f. sp. tritici. Description: Test I: wheat powdery mildew, preventive spray on wheat seedlings, visual disease rating. The note with it: 100 = 100% disease control; for Test I rating (disease control) / Test I rating (% disease control): wheat powdery mildew; for Test I rating (disease control) / pest or weed control at 200 µg/mL: 0 = no disease control relative to the controls; for pest or weed control at 200 µg/mL: Blumeria graminis, in Triticum aestivum, read-out: Test I rating (disease control), wheat powdery mildew; for Test I rating (% disease control): preventive spray, rating without asterisk.
Description: (§2) General protocol for preparing test suspensions for Tests A-I: the test compounds were first dissolved in acetone in an amount equal to 3% of the final volume and then suspended at the desired concentration (in ppm) in acetone and purified water (50/50 mix by volume) containing 250 ppm of the surfactant Trem® 014 (polyhydric alcohol esters). The resulting test suspensions were then used in Tests A-I. Each test was conducted in triplicate, and the results were averaged. Spraying a 200 ppm test suspension to the point of run-off on the test plants was the equivalent of a rate of about 800 g/ha. Unless otherwise indicated, the rating values indicate a 200 ppm test suspension was used. (An asterisk “*” next to the rating value indicates a 40 ppm test suspension was used.)
The test suspension was sprayed to the point of run-off on wheat seedlings. The following day the seedlings were inoculated with a spore dust of Blumeria graminis f. sp. tritici (also known as Erysiphe graminis f. sp. tritici, the causal agent of wheat powdery mildew) and incubated in a growth chamber at 20° C. for 8 days, after which time visual disease ratings were made.

The subject of the next experiment is Alternaria solani. Description: Test B: tomato early blight, preventive spray on tomato seedlings, visual disease rating. The note with it: for Test B rating (disease control) / Test B rating (% disease control): tomato early blight, 100 = 100% disease control; for Test B rating (disease control): 0 = no disease control relative to the controls; for pest or weed control at 200 µg/mL: Alternaria solani, in Solanum lycopersicum, read-out: Test B rating (disease control); for Test B rating (% disease control): preventive spray, rating without asterisk.

Experiment [2] has as its system Puccinia recondita f. sp. tritici. Description: Test H: wheat leaf rust, preventive spray on wheat seedlings, visual disease rating. The note with it: 100 = 100% disease control; for Test H rating (disease control) / Test H rating (% disease control): wheat leaf rust; for Test H rating (disease control): sprayed the day before inoculation; for Test H rating (disease control) / pest or weed control at 200 µg/mL: 0 = no disease control; for pest or weed control at 200 µg/mL: read-out: Test H rating (disease control), wheat leaf rust, sprayed the day before inoculation; for Test H rating (% disease control): preventive spray, rating without asterisk.

Another experiment deals with Septoria nodorum. Description: Test E: Septoria glume blotch, preventive spray on wheat seedlings, visual disease rating. As to conditions: 100 = 100% disease control; for Test E rating (disease control): Septoria glume blotch; for Test E rating (disease control) / pest or weed control at 200 µg/mL: 0 = no disease control relative to the controls; for pest or weed control at 200 µg/mL: Parastagonospora nodorum, in Triticum aestivum, read-out: Test E rating (disease control), Septoria glume blotch; for Test E rating (% disease control): Septoria glume blotch on wheat, preventive spray, rating without asterisk.

In experiment [3] the test system is Puccinia recondita f. sp. tritici. Description: Test G: wheat leaf rust, spray after inoculation (curative) on wheat seedlings, visual disease rating. In kind it is in vivo. The note with it: 100 = 100% disease control; for Test G rating (disease control) / pest or weed control at 200 µg/mL: sprayed after inoculation, 0 = no disease control; for Test G rating (% disease control): spray after inoculation, rating without asterisk. An excerpt:
(§1) A hyphen (-) indicates no test results.

Another experiment deals with Botrytis cinerea. Description: Test A: tomato Botrytis, preventive spray on tomato seedlings, visual disease rating. The note with it: 100 = 100% disease control; for Test A rating (disease control) / Test A rating (% disease control): tomato Botrytis; for Test A rating (disease control) / pest or weed control at 200 µg/mL: 0 = no disease control relative to the controls; for pest or weed control at 200 µg/mL: Botrytis cinerea, in Solanum lycopersicum, read-out: Test A rating (disease control), tomato Botrytis; for Test A rating (% disease control): preventive spray, 0 = no control relative to controls, rating without asterisk.

For the next experiment, the system named is Septoria tritici. Description: Test F: wheat leaf blotch, preventive spray on wheat seedlings, visual disease rating. The experiment is classed as in vivo. The arrangement: Test F rating (disease control), value marked *: concentration or dose not given beside the values. The note with it: for pest or weed control at 200 µg/mL: Zymoseptoria tritici; for pest or weed control at 200 µg/mL / Test F rating (disease control) / Test F rating (% disease control): 100 = 100% disease control; for pest or weed control at 200 µg/mL / Test F rating (disease control): 0 = no disease control relative to the controls; for Test F rating (% disease control): preventive spray, rating without asterisk.
Description: as §1

Description for Alternaria solani: as §2
The test suspension was sprayed to the point of run-off on tomato seedlings. The following day the seedlings were inoculated with a spore suspension of Alternaria solani (the causal agent of tomato early blight) and incubated in a saturated atmosphere at 27° C. for 48 h, and then moved to a growth chamber at 20° C. for 5 days, after which time visual disease ratings were made.

Regarding `Cc1nn(C)c(Nc2ccc(Cl)cc2Cl)c1-c1ccc(F)cc1Cl` [compound 88], the “Test I rating (disease control)” value in experiment [1] amounted to 100%. For the same molecule, the “Test B rating (disease control)” value with Alternaria solani stood at 95%. The “Test H rating (disease control)” value in experiment [2] is given as 100%. The “Test E rating (disease control)” value with Septoria nodorum was 51%. Besides, the “Test G rating (disease control)” value in experiment [3] is reported as 41%. The “Test A rating (disease control)” value in the experiment on Botrytis cinerea came out at 100%. In addition, in the experiment with Septoria tritici (rating marked with asterisk (*), other test condition, not explained in the text shown), the “Test F rating (disease control), value marked *” value is 100* %.
Consider `Cc1nn(C)c(Nc2c(F)cc(C#N)cc2F)c1-c1ccc(F)cc1Cl` [Compound 25, 4-[[4-(2-chloro-4-fluorophenyl)-1,3-dimethyl-1H-pyrazol-5-yl]amino]-3,5-difluorobenzonitrile], for which the pest or weed control at 200 µg/mL in experiment [1] came to 100%; with Alternaria solani it was 99%; in experiment [2], 100%; in the experiment on Septoria nodorum, 95%; in experiment [3], 0%; in the experiment on Botrytis cinerea it was 100%. The molecule also displayed a pest or weed control at 200 µg/mL in the experiment on Septoria tritici of 99%.
Turning to `Cc1nn(C)c(Nc2c(F)cc(F)cc2Br)c1-c1ccc(F)cc1Cl` [Compound 144, N-(2-bromo-4,6-difluorophenyl)-4-(2-chloro-4-fluorophenyl)-1,3-dimethyl-1H-pyrazol-5-amine], the pest or weed control at 200 µg/mL in experiment [1] came to 100%; in the experiment on Alternaria solani, 99%; in experiment [2], 100%; with Septoria nodorum it was 100%; in experiment [3], 100%; with Botrytis cinerea, 100%. In the experiment on Septoria tritici, the pest or weed control at 200 µg/mL is 100%.
As to `Cc1nn(C)c(Nc2c(F)cc(C#N)cc2F)c1-c1ccc(F)cc1F` [compound 83], the “Test I rating (disease control)” value in experiment [1] is 100%. Moreover, the “Test B rating (disease control)” value with Alternaria solani is on record as 99%. Moreover, the “Test H rating (disease control)” value in experiment [2] amounted to 100%. Also, the “Test E rating (disease control)” value in the experiment on Septoria nodorum is on record as 87%. For the same molecule, the “Test G rating (disease control)” value in experiment [3] is 0%. Further, the “Test A rating (disease control)” value in the experiment on Botrytis cinerea is 100%. Further, the “Test F rating (disease control)” value in the experiment on Septoria tritici is listed as 100%.
As to `Cc1nn(C)c(Nc2c(F)cc(Cl)cc2F)c1-c1ccc(C#N)cc1Cl` [Compound 111, 3-chloro-4-[5-[(4-chloro-2,6-difluorophenyl)amino]-1,3-dimethyl-1H-pyrazol-4-yl]benzonitrile], the pest or weed control at 200 µg/mL turned out to be 99% in experiment [1]; 97% with Alternaria solani; 100% in experiment [2]; 95% in the experiment with Septoria nodorum; 94% in experiment [3]; 100% in the experiment on Botrytis cinerea. The same molecule yielded a pest or weed control at 200 µg/mL in the experiment on Septoria tritici of 100%.
For `Cc1nn(C)c(Nc2c(F)cc(F)cc2F)c1-c1c(F)cccc1Cl` [compound 56], the “Test I rating (disease control)” value in experiment [1] was determined as 99%. Also, in the experiment with Alternaria solani, the “Test B rating (disease control)” value was determined as 100%. Further, the “Test H rating (disease control)” value in experiment [2] worked out at 97%. Also, the “Test E rating (disease control)” value in the experiment with Septoria nodorum was 0%. For the same molecule, the “Test G rating (disease control)” value in experiment [3] was found to be 0%. The “Test A rating (disease control)” value in the experiment with Botrytis cinerea worked out at 98%. The “Test F rating (disease control)” value with Septoria tritici is 100%.
As to `Cc1nn(C)c(Nc2c(Cl)cc(F)cc2Cl)c1-c1ccc(F)cc1Br` [compound 98], the “Test I rating (disease control)” value in experiment [1] turned out to be 96%. For the same molecule, the “Test B rating (disease control)” value in the experiment with Alternaria solani came out at 0%. The “Test H rating (disease control)” value in experiment [2] worked out at 99%. In addition, the “Test E rating (disease control)” value in the experiment with Septoria nodorum came to 0%. Moreover, the “Test G rating (disease control)” value in experiment [3] turned out to be 9%. Further, the “Test A rating (disease control)” value in the experiment on Botrytis cinerea was 99%. Also, the “Test F rating (disease control)” value with Septoria tritici was 99%.
Consider `COc1cc(F)c(-c2c(C)nn(C)c2Nc2c(F)cc(F)cc2F)c(F)c1` [Compound 7, 4-(2,6-difluoro-4-methoxyphenyl)-1,3-dimethyl-N-(2,4,6-trifluorophenyl)-1H-pyrazol-5-amine], for which the pest or weed control at 200 µg/mL in experiment [1] was 100%; in the experiment on Alternaria solani, 100%; in experiment [2], 97%; in the experiment on Septoria nodorum, 0%; in experiment [3], 9%; in the experiment on Botrytis cinerea, 98%. In addition, the pest or weed control at 200 µg/mL with Septoria tritici was 94%.
Take `Cc1nn(C)c(Nc2c(F)cccc2F)c1-c1c(F)cccc1F` [compound 69]: the “Test I rating (disease control)” value in experiment [1] is on record as 100%. In addition, the “Test B rating (disease control)” value with Alternaria solani was found to be 99%. Moreover, in experiment [2], the “Test H rating (disease control)” value worked out at 99%. The “Test E rating (disease control)” value with Septoria nodorum is recorded as 60%. Further, in experiment [3], the “Test G rating (disease control)” value is listed as 0%. Moreover, the “Test A rating (disease control)” value in the experiment on Botrytis cinerea was found to be 100%. The “Test F rating (disease control)” value in the experiment with Septoria tritici is 100%.
Take `Cc1nn(C)c(Nc2c(F)cc(F)cc2Cl)c1-c1ccc(F)cc1F` [Compound 117, N-(2-chloro-4,6-difluorophenyl)-4-(2,4-difluorophenyl)-1,3-dimethyl-1H-pyrazol-5-amine]: the pest or weed control at 200 µg/mL stood at 100% in experiment [1]; 100% with Alternaria solani; 100% in experiment [2]; 97% in the experiment on Septoria nodorum; 91% in experiment [3]; 100% in the experiment on Botrytis cinerea. In the experiment with Septoria tritici, the pest or weed control at 200 µg/mL amounted to 100%.
`Cc1nn(C)c(Nc2c(Cl)cc(Cl)cc2I)c1-c1ccc(F)cc1Cl` [compound 197]: the “Test I rating (% disease control)” value in experiment [1] was 94%. In the experiment with Alternaria solani, the “Test B rating (% disease control)” value is recorded as 77%. The “Test H rating (% disease control)” value in experiment [2] is reported as 97%. In the experiment on Septoria nodorum, the “Test E rating (% disease control)” value came to 0%. Moreover, the “Test G rating (% disease control)” value in experiment [3] stood at 9%. In addition, the “Test A rating (% disease control)” value in the experiment with Botrytis cinerea worked out at 100%. In addition, the “Test F rating (% disease control)” value in the experiment with Septoria tritici amounted to 100%.
`Cc1nn(C)c(Nc2c(F)cc(F)cc2I)c1-c1ccc(F)cc1Cl` [compound 213]: the “Test I rating (% disease control)” value in experiment [1] amounted to 100%. Further, the “Test B rating (% disease control)” value with Alternaria solani is recorded as 100%. In experiment [2], the “Test H rating (% disease control)” value worked out at 100%. In the experiment on Septoria nodorum, the “Test E rating (% disease control)” value worked out at 100%. In addition, the “Test G rating (% disease control)” value in experiment [3] was found to be 100%. In addition, the “Test A rating (% disease control)” value with Botrytis cinerea was 100%. The “Test F rating (% disease control)” value with Septoria tritici was 100%.
As for `Cc1nn(C)c(Nc2ccc(Cl)cc2F)c1-c1ccc(F)cc1F` [compound 160], the “Test I rating (disease control)” value in experiment [1] is 100%. Besides, the “Test B rating (disease control)” value with Alternaria solani turned out to be 99%. In addition, the “Test H rating (disease control)” value in experiment [2] is listed as 99%. The “Test E rating (disease control)” value in the experiment with Septoria nodorum was 0%. Moreover, in experiment [3], the “Test G rating (disease control)” value is 0%. For the same molecule, the “Test A rating (disease control)” value in the experiment with Botrytis cinerea is recorded as 100%. Further, in the experiment on Septoria tritici, the “Test F rating (disease control)” value is on record as 100%.
Turning to `Cc1nn(C)c(Oc2c(F)cc(C#N)cc2F)c1-c1ccccc1F` [compound 91], the “Test I rating (disease control)” value in experiment [1] came out at 99%. Besides, the “Test B rating (disease control)” value in the experiment with Alternaria solani turned out to be 99%. The “Test H rating (disease control)” value in experiment [2] is 99%. In addition, the “Test E rating (disease control)” value with Septoria nodorum stood at 94%. In experiment [3], the “Test G rating (disease control)” value is on record as 0%. In the experiment on Botrytis cinerea, the “Test A rating (disease control)” value is given as 99%. In addition, the “Test F rating (disease control)” value with Septoria tritici is listed as 100%.
As to `COc1cc(F)c(Nc2c(-c3ccc(F)cc3F)c(C)nn2C)c(F)c1` [compound 12], in experiment [1], the “Test I rating (disease control)” value amounted to 82%. For the same molecule, the “Test B rating (disease control)” value in the experiment with Alternaria solani was 0%. Besides, in experiment [2], the “Test H rating (disease control)” value was 94%. Besides, in the experiment on Septoria nodorum, the “Test E rating (disease control)” value is recorded as 0%. Besides, the “Test G rating (disease control)” value in experiment [3] is recorded as 0%. Besides, the “Test A rating (disease control)” value with Botrytis cinerea amounted to 100%. The “Test F rating (disease control)” value with Septoria tritici was 93%.
